Earlier results as cited in patent US20130317108A1, “DERMATOLOGICAL FOAMS OBTAINED FROM A GEL OR SUSPENSION CONTAINING A COMBINATION OF ADAPALENE AND BENZOYL PEROXIDE” (GALDERMA RESEARCH & DEVELOPMENT, priority 2010, published 2013).
Where two headings read alike, the source gives them in different places.

Experiments:
[1] = in presence of benzoyl peroxide formulation
[2] = in suspension (dispersed form) in water and propylene glycol, 90 days of storage
[3] = 40° C.

Row | retinoid degraded ([1]; within 24 hours) | retinoid degraded ([1]; within 2 hours) [%] | Structure (SMILES) | degradation on storage [2] | degradation time (half-life time) ([3]; in PEG 400 (0.5 mg/g)) [days] | degradation time (half-life time) ([3]; in ethanol) [days] | degradation time (half-life time) ([3]; in propylene glycol) [days]
1 | no degradation |  | COc1ccc(-c2ccc3cc(C(=O)O)ccc3c2)cc1C12CC3CC(CC(C3)C1)C2 [adapalene, 6-[3-(1-Adamantyl)-4-methoxyphenyl]-2-naphthoic acid] |  |  |  | 
2 |  |  | O=C(OOC(=O)c1ccccc1)c1ccccc1 [benzoyl peroxide] | not degraded | 1.4 | 29 | 53
3 | 95% | 50 | CC1=C(/C=C/C(C)=C/C=C/C(C)=C/C(=O)O)C(C)(C)CCC1 [tretinoin] |  |  |  | 
